Broadly, the IC50 is the concentration that gives 50% inhibition. A lower IC50 goes with inhibition by little substance.

The test system of the first assay is CCD967. The assay can be described thus: In vitro cell proliferation assay (WST.1, Table 5). The assay is classed as cell-based. The following applies: Homo sapiens, CCD-967, 72 h; CCD967 normal skin line, day 3. As for the experimental part: (§1) These cell lines were grown in Iscove's MDM supplemented with 5% fetal calf serum (FCS), 50 μM 2-mercaptoethanol, 100 μg/ml penicillin, and 100 μg/ml streptomycin. Cell lines growing in suspension were maintained at 0.5-1.5×10^6 cell/ml, while adherent cell lines were maintained at subconfluent densities.
(§2) Cell lines were seeded in triplicate at 10^4 cells/100 μl in 96-well plates. Peripheral blood mononuclear cells were seeded in triplicate at 10^5 cells/100 μl in 96-well plate. Different test compounds were added immediately at final concentrations ranging between 0 to 100 μM. All compounds were dissolved in sterile deionized water, so water was added to the control wells. On day 3, WST.1 assay (Roche) was used to measure the effect of different test compounds on cell growth. WST.1 assay is a calorimetric assay for the nonradioactive quantification of cell proliferation, cell viability, and cytotoxicity. The assay was performed according to manufacturer's instructions (Roche). It relies on the cleavage by cellular enzymes of WST.1 (water soluble tetrazolium salt: 4-[3-(4-iodophenyl)-2-(4-nitrophenyl)-2H-5-tetrazolio]-1,3-benzene disulfonate) to formazan. The amount of formazan dye formed correlates to the number of metabolically active cells in the culture and is readily read in an ELISA microplate reader using an absorbance wavelength of 440 nm. These OD values are plotted against concentrations of different compounds and IC50 is determined for each compound.
For the molecule `Nc1cc(=O)[nH]c(=O)n1[C@@H]1O[C@H](CO)C(O)C1O` (stereo partly drawn), the IC50 is more than 50 µM.

`CC(=O)OCC1OC(n2c(I)cc(=O)[nH]c2=O)C(O)C1O` (stereo not drawn) displayed an IC50 of more than 50 µM.

`Cc1cc(=O)[nH]c(=O)n1C1OC(CO)C(O)C1O` (stereo not drawn) showed an IC50 of more than 50 µM.

In the next assay the test system is COLO205. The assay can be described thus: In vitro cell proliferation assay (WST.1, Table 5). Particulars: Homo sapiens, COLO 205, 72 h; COLO205, day 3. The assay is classed as cell-based. The procedure:
as §1, §2
`Nc1cc(=O)[nH]c(=O)n1[C@@H]1O[C@H](CO)C(O)C1O` (stereo partly drawn) gave an IC50 of more than 50 µM.

The molecule `CC(=O)OCC1OC(n2c(I)cc(=O)[nH]c2=O)C(O)C1O` (stereo not drawn) had an IC50 of more than 50 µM.

Regarding `Cc1cc(=O)[nH]c(=O)n1C1OC(CO)C(O)C1O` (stereo not drawn), the IC50 is more than 50 µM.

A further assay has as its system HS58T. Put plainly: In vitro cell proliferation assay (WST.1, Table 5). The format is cell-based. Particulars: Homo sapiens, 72 h, day 3. As for the experimental part:
as §1, §2
With `Nc1cc(=O)[nH]c(=O)n1[C@@H]1O[C@H](CO)C(O)C1O` (stereo partly drawn), the IC50 is more than 50 µM.

`CC(=O)OCC1OC(n2c(I)cc(=O)[nH]c2=O)C(O)C1O` (stereo not drawn) had an IC50 of more than 50 µM.

In the case of `Cc1cc(=O)[nH]c(=O)n1C1OC(CO)C(O)C1O` (stereo not drawn), the IC50 was more than 50 µM.

The subject of the next assay is MCF7. The assay can be described thus: In vitro cell proliferation assay (WST.1, Table 5). The format is cell-based. Particulars: Homo sapiens, 72 h; MCF7, day 3. The procedure: as §1, §2
Take `Nc1cc(=O)[nH]c(=O)n1[C@@H]1O[C@H](CO)C(O)C1O` (stereo partly drawn): the IC50 was more than 50 µM.

As for `CC(=O)OCC1OC(n2c(I)cc(=O)[nH]c2=O)C(O)C1O` (stereo not drawn), it took 4.4 µM to reach half-maximal inhibition (IC50).

`Cc1cc(=O)[nH]c(=O)n1C1OC(CO)C(O)C1O` (stereo not drawn) showed a 50% inhibitory concentration (IC50) of more than 50 µM.

The subject of a further assay is MDA468. Put plainly: In vitro cell proliferation assay (WST.1, Table 5). The assay is classed as cell-based. The following applies: Homo sapiens, 72 h; MDA468, day 3. The procedure:
as §1, §2
Take `Nc1cc(=O)[nH]c(=O)n1[C@@H]1O[C@H](CO)C(O)C1O` (stereo partly drawn): the IC50 was more than 50 µM.

Molecule `CC(=O)OCC1OC(n2c(I)cc(=O)[nH]c2=O)C(O)C1O` (stereo not drawn) registered a half-inhibitory concentration (IC50) of more than 50 µM.

`Cc1cc(=O)[nH]c(=O)n1C1OC(CO)C(O)C1O` (stereo not drawn) registered an IC50 of more than 50 µM.

Another assay deals with OCI-AML-1. Put plainly: In vitro cell proliferation assay (WST.1, Table 5). The format is cell-based. The following applies: Homo sapiens, 72 h; OCI-AML-1, day 3. As for the experimental part:
as §1, §2
Regarding `Nc1cc(=O)[nH]c(=O)n1[C@@H]1O[C@H](CO)C(O)C1O` (stereo partly drawn), the IC50 is more than 50 µM.

Molecule `CC(=O)OCC1OC(n2c(I)cc(=O)[nH]c2=O)C(O)C1O` (stereo not drawn) showed an IC50 of 15.2 µM.

Molecule `Cc1cc(=O)[nH]c(=O)n1C1OC(CO)C(O)C1O` (stereo not drawn) returned an IC50 of more than 50 µM.

The subject of the next assay is OCI-AML-2. The assay can be described thus: In vitro cell proliferation assay (WST.1, Table 5). The assay is classed as cell-based. Particulars: Homo sapiens, OCI-AML2, 72 h; OCI-AML-2, day 3. As for the experimental part:
as §1, §2
Take `Nc1cc(=O)[nH]c(=O)n1[C@@H]1O[C@H](CO)C(O)C1O` (stereo partly drawn): the IC50 was more than 50 µM.

Turning to `CC(=O)OCC1OC(n2c(I)cc(=O)[nH]c2=O)C(O)C1O` (stereo not drawn), the IC50 is 11.7 µM.

In turn, `Cc1cc(=O)[nH]c(=O)n1C1OC(CO)C(O)C1O` (stereo not drawn) displayed an IC50 of more than 50 µM.

The test system of a further assay is OCI-Ly-7. The assay can be described thus: In vitro cell proliferation assay (WST.1, Table 5). The assay is classed as cell-based. The following applies: Homo sapiens, OCI-Ly7, 72 h; OCI-Ly-7, day 3. As for the experimental part: as §1, §2
For `Nc1cc(=O)[nH]c(=O)n1[C@@H]1O[C@H](CO)C(O)C1O` (stereo partly drawn), the IC50 was more than 50 µM.

`CC(=O)OCC1OC(n2c(I)cc(=O)[nH]c2=O)C(O)C1O` (stereo not drawn): the IC50 was 36.2 µM.

Consider `Cc1cc(=O)[nH]c(=O)n1C1OC(CO)C(O)C1O` (stereo not drawn), for which the concentration for half-maximal inhibition (IC50) is more than 50 µM.

A further assay deals with OCI-My-2. Put plainly: In vitro cell proliferation assay (WST.1, Table 5). The assay is classed as cell-based. Particulars: Homo sapiens, 72 h; OCI-My-2, day 3. The procedure:
as §1, §2
With `Nc1cc(=O)[nH]c(=O)n1[C@@H]1O[C@H](CO)C(O)C1O` (stereo partly drawn), the IC50 was more than 50 µM.

For `CC(=O)OCC1OC(n2c(I)cc(=O)[nH]c2=O)C(O)C1O` (stereo not drawn), the IC50 turned out to be 1.3 µM.

Molecule `Cc1cc(=O)[nH]c(=O)n1C1OC(CO)C(O)C1O` (stereo not drawn) yielded an IC50 of more than 50 µM.

Another assay concerns OCVR4. The assay can be described thus: In vitro cell proliferation assay (WST.1, Table 5). The following applies: Homo sapiens, 72 h; OCVR4, day 3. The format is cell-based. The procedure:
as §1, §2
As to `Nc1cc(=O)[nH]c(=O)n1[C@@H]1O[C@H](CO)C(O)C1O` (stereo partly drawn), the half-maximal inhibitory concentration (IC50) was more than 50 µM.

`CC(=O)OCC1OC(n2c(I)cc(=O)[nH]c2=O)C(O)C1O` (stereo not drawn): the half-maximal inhibitory concentration (IC50) was more than 50 µM.

`Cc1cc(=O)[nH]c(=O)n1C1OC(CO)C(O)C1O` (stereo not drawn) returned an IC50 of more than 50 µM.

For another assay, the system named is PC3. The assay can be described thus: In vitro cell proliferation assay (WST.1, Table 5). The format is cell-based. Particulars: Homo sapiens, PC-3, 72 h; PC3, day 3. The procedure:
as §1, §2
Molecule `Nc1cc(=O)[nH]c(=O)n1[C@@H]1O[C@H](CO)C(O)C1O` (stereo partly drawn) showed an IC50 of more than 50 µM.

`CC(=O)OCC1OC(n2c(I)cc(=O)[nH]c2=O)C(O)C1O` (stereo not drawn) displayed an IC50 of more than 50 µM.

For the molecule `Cc1cc(=O)[nH]c(=O)n1C1OC(CO)C(O)C1O` (stereo not drawn), the half-maximal inhibitory concentration (IC50) is more than 50 µM.

Another assay has as its system SKW3. The assay can be described thus: In vitro cell proliferation assay (WST.1, Table 5). The assay is classed as cell-based. The following applies: Homo sapiens, 72 h; SKW3, day 3. As for the experimental part:
as §1, §2
Take `Nc1cc(=O)[nH]c(=O)n1[C@@H]1O[C@H](CO)C(O)C1O` (stereo partly drawn): the IC50 was more than 50 µM.

`CC(=O)OCC1OC(n2c(I)cc(=O)[nH]c2=O)C(O)C1O` (stereo not drawn) displayed an IC50 of 1.6 µM.

`Cc1cc(=O)[nH]c(=O)n1C1OC(CO)C(O)C1O` (stereo not drawn) had an IC50 of more than 50 µM.

The subject of a further assay is SNB19. The assay can be described thus: In vitro cell proliferation assay (WST.1, Table 5). The assay is classed as cell-based. Particulars: Homo sapiens, SNB-19, 72 h; SNB19, day 3. As for the experimental part: as §1, §2
`Nc1cc(=O)[nH]c(=O)n1[C@@H]1O[C@H](CO)C(O)C1O` (stereo partly drawn) gave an IC50 of more than 50 µM.

Turning to `CC(=O)OCC1OC(n2c(I)cc(=O)[nH]c2=O)C(O)C1O` (stereo not drawn), the half-maximal inhibitory concentration (IC50) was more than 50 µM.

As to `Cc1cc(=O)[nH]c(=O)n1C1OC(CO)C(O)C1O` (stereo not drawn), the IC50 was more than 50 µM.

The test system of the next assay is T47D. The assay can be described thus: In vitro cell proliferation assay (WST.1, Table 5). Particulars: Homo sapiens, 72 h, day 3. The format is cell-based. The procedure: as §1, §2
For the molecule `Nc1cc(=O)[nH]c(=O)n1[C@@H]1O[C@H](CO)C(O)C1O` (stereo partly drawn), the half-maximal inhibitory concentration (IC50) was more than 50 µM.

For the molecule `CC(=O)OCC1OC(n2c(I)cc(=O)[nH]c2=O)C(O)C1O` (stereo not drawn), the IC50 is more than 50 µM.

The molecule `Cc1cc(=O)[nH]c(=O)n1C1OC(CO)C(O)C1O` (stereo not drawn) came in with an IC50 of more than 50 µM.

The test system of another assay is LOX. Put plainly: In vitro cell proliferation assay (WST.1, Table 5). The format is cell-based, human. Particulars: Homo sapiens, 72 h, day 3. The procedure:
as §1, §2
`Nc1cc(=O)[nH]c(=O)n1[C@@H]1O[C@H](CO)C(O)C1O` (stereo partly drawn) registered an IC50 of more than 50 µM.

On to `CC(=O)OCC1OC(n2c(I)cc(=O)[nH]c2=O)C(O)C1O` (stereo not drawn), for which the IC50 stood at 1.1 µM.

In turn, `Cc1cc(=O)[nH]c(=O)n1C1OC(CO)C(O)C1O` (stereo not drawn) showed an IC50 of more than 50 µM.

Source of the values: patent publication US20100056468A1, “Pyrimidine Derivatives As Anticancer Agents” (University Health Network, priority 2007, published 2010).
